We go through 2 molecules from the NIST ThermoML archive (doi:10.1016/j.fluid.2010.02.043).

The structures appear in SMILES notation. Numbers after ± are expanded uncertainties.

For this series the following is noted: Liquid, Ebulliometric method (Recirculating still).

A word on the vapor or sublimation pressure: it is the pressure of vapour in equilibrium with the condensed phase.

As for `CCSSCC` [3,4-dithiahexane], the “vapor or sublimation pressure” value (366.97 K) was 15.8 ± 0.4 kPa; the “vapor or sublimation pressure” value (378.82 K) worked out at 24.1 ± 0.4 kPa; the “vapor or sublimation pressure” value (387.59 K) is 32.3 ± 0.4 kPa; the “vapor or sublimation pressure” value (397.84 K) is given as 44.4 ± 0.4 kPa; the “vapor or sublimation pressure” value (403.31 K) is 52.8 ± 0.4 kPa; the “vapor or sublimation pressure” value (408.91 K) came out at 62.2 ± 0.4 kPa. Besides, the “vapor or sublimation pressure” value is recorded as 71.1 ± 0.4 kPa (413.59 K), 82.1 ± 0.4 kPa (418.73 K), 90.5 ± 0.4 kPa (422.25 K) and 100.7 ± 0.4 kPa (426.39 K).

Take `CSSC` [2,3-dithiabutane]: the “vapor or sublimation pressure” value reads like this: (332.19 K) 18.2 ± 0.4 kPa; (346.26 K) 31.1 ± 0.4 kPa; (354.42 K) 41.7 ± 0.4 kPa; (362.18 K) 53.9 ± 0.4 kPa; (366.46 K) 61.9 ± 0.4 kPa; (371.63 K) 72.9 ± 0.4 kPa. Moreover, the “vapor or sublimation pressure” value runs as follows: (375.04 K) 81.1 ± 0.4 kPa; (378.75 K) 90.9 ± 0.4 kPa; (382.02 K) 100.6 ± 0.5 kPa.
